This is an account of results in patent US10786505B2, “Administration of NEDD8-activating enzyme inhibitor and chemotherapeutic agents” (Millennium Pharmaceuticals, Inc., priority 2013, dated 2020).

Assay [1] concerns BxPC3. Briefly: In vitro cell viability combination assay (CellTiter-Glo). Type of assay: cell-based. The following applies: agent combined with MLN4924, vehicle DMSO, 72 hr. From the text: (§1) After normalization, the controls are discarded.
(§2) Otherwise, the classification is “Additivity”.

The subject of assay [2] is MIA PaCa-2. Described as above. Type of assay: cell-based. The conditions noted are these: agent combined with MLN4924, vehicle DMSO, 72 hr.
Excerpt: as §1, §2

Assay [3] deals with PANC1. Described as above. Type of assay: cell-based. The following applies: agent combined with MLN4924, vehicle DMSO, 72 hr.
Excerpt: as §1, §2

Assay [4] concerns PHTX02B xenograft model. Briefly: Combination of gemcitabine and MLN4924 in PHTX02B xenograft model. Type of assay: in vivo, mice. The procedure:
(§3) The PHTX02B breast xenograft model was established from a patient-derived tumor collected during surgery from a person with invasive ductal carcinoma classified as triple negative breast cancer (ER-/PR-/Her2-) by IHC. […] Gemcitabine (Gemzar, Henry Schein, Inc, Pittsburgh Pa., and Myoderm Medical, Norristown, Pa.) is formulated in 0.9% saline and administered by intraperitoneal injection (IP) q3Dx4 (every 3 days for a total of 4 doses) at 2.5 mg/kg or 10 mg/kg, or by IV injection twice weekly (BIW) at 20 mg/kg IVU. […] Tumors are measured twice weekly using a vernier caliper. […] Tumor size and body weight are measured approximately twice a week for the duration of the study. […] Tumor growth continued to be monitored after the dosing period in some studies. […] Average tumor volume is reported as a function of time for selected groups of selected studies in Figures A, B, and C. Measurements from day 0 to 18, 21 or 22 are analyzed as specified in Tables 4-9. […] For each animal, the log tumor volume at day 0 is subtracted from the log tumor volume on the subsequent days. This difference vs. time is used to calculate an area under the curve (AUC) for each animal using the trapezoid rule. In instances when an animal in a treatment group is removed early from the study, the last observed tumor value is carried forward through all subsequent time points. […] The standard error of the synergy score is computed based on the variation in the AUC values among the animals. […] Otherwise, the combination is classified as antagonistic.

Assay [5] relates to PHTX249Pa xenograft model. In words: Combination of gemcitabine and MLN4924 in PHTX249Pa xenograft model. Type of assay: in vivo, mice. The procedure: as §3, with “PHTX249 Pa pancreatic” for “PHTX02B breast”, “pancreatic adenocarcinoma.” for “invasive ductal carcinoma classified as triple negative breast cancer (ER-/PR-/Her2-) by IHC.”
In assay [6] the test system is A549. Briefly: In vitro cell viability combination assay (CellTiter-Glo). The conditions noted are these: agent combined with MLN4924, vehicle DMSO, 72 hr.
Method: (§4) General Method: Cells are grown in their respective growth media, supplemented with 10% fetal bovine serum unless otherwise noted. […] A portion of each plate is used for positive controls (no agent is added), while another portion of each plate is used for negative controls (no cells are added). Viability is assessed with CellTiter-Glo® Cell Viability reagent used according to manufacturer's instructions (Promega). Luminescence is measured using a LEADseeker imaging system (GE Healthcare).
(§5) The viability data is normalized separately for each plate by scaling the data so that the median of the negative controls is 0 and the median of the positive controls is 100. More formally,
(§6) [formula] where Vi is the normalized viability of the i^th well, Ui is the raw viability measurement, median (U) is the median of the negative controls, and median (U+) is the median of the positive controls. After normalization, the controls are discarded.
(§7) where E1, E2, E3, E4, I1, I2, I3, S1, S2, S3, and S4 are parameters, CA and CB are the respective concentrations of agents A and B, and V is the normalized viability measurement. It is assumed that the error values are independent and identically distributed normal random variables.
(§8) The Combination Index is computed based on an isobologram, which is a slice of the dose response surface with constant viability. For the present analysis, the 50% isobologram, which is the dose contour that has 50% viability, is used. […] Since the choice of (DA, DB) can be arbitrary, the constraint DA/DB=EC50A/EC50B is used.
(§9) In such cases, Nonlinear Blending can be used as an alternative measure of synergy or additivity. Nonlinear Blending is found by considering a slice of the dose response surface that intersects both concentration axes and runs parallel to the viability axis. Let VA and VB be the viability where the slice intersects the drug A and B axes, respectively. Let Vmax and Vmin be the maximum and minimum viabilities along the slice. Let NLBS=min(VA,VB)−Vmin NLBA=Vmax−max(VA,VB) Define the Nonlinear Blending value to be NLBS if NLBS>NLBA and −NLBA otherwise.
(§10) After completing the analysis of individual plates, the results are combined across the replicates. For a given measure and a set of replicates, the overall mean and standard error are computed using weighted averaging. A null mean, which corresponded to an additive effect, is then compared with the overall mean. The null mean is 1 for the Combination Index and 0 for Nonlinear Blending. Next, a two sized Z-test is performed based on the estimated mean and standard error. This produces a p-value for each measure and each cell line.
(§11) After computing the mean, standard error, and p-value for each set of replicates, these values require interpretation. Thus, a standard procedure is used to produce a classification (synergy, additivity, subadditivity, antagonism, or inconclusive) in each case. If the Combination Index exists for more than half of the replicates, then these measures are used to make the classification.
(§12) Consider the case where the Combination Index is used to make the classification. If the p-value is greater than 0.05, the estimate for the Combination Index is not statistically different from 1. However, if the standard error is also very large, then the estimate is too uncertain to be informative. […] Otherwise, the classification is “Additivity”. When the p-value is less than 0.05, the estimate for the Combination Index is statistically different from 1. However, if the mean is still close to 1, then the difference is not of practical significance. Thus, the result is classified based on the mean. A mean in the range (0.8, 1.2) is considered close enough to 1 to be classified as Additivity. A mean in the range (0, 0.8) is considered low enough to be classified as Synergy. […] The threshold value of 2 can be derived from the definition of the Combination Index.
For assay [7], the system named is HCT116. The description is as above. The conditions noted are these: agent combined with MLN4924, vehicle DMSO, 48 hr.
Method: as §4, §5, §6, §7, §8, §9, §10, §11, §12

As for `Nc1ccn([C@@H]2O[C@H](CO)[C@@H](O)C2(F)F)c(=O)n1` [gemcitabine], the “Combination Index” value came out at 1.49 in assay [1]; 1.15 in assay [2]; 0.24 in assay [3]; 1.44 ± 0.07 in assay [6]; 0.49 ± 0.1 in assay [7]. The “Nonlinear Blending” value in assay [1] is −26.0; in assay [2] it was −8.1; in assay [3] it was 19.4; in assay [6], −16 ± 3; in assay [7], 30 ± 3. Also, the “average tumor volume day 22” value turned out to be 1386.3 mm^3 in assay [4] (2.5 mg/kg gemcitabine Q3Dx4 IP) and 769.4 mm^3 in assay [4] (10 mg/kg gemcitabine Q3Dx4 IP). Also, the “tumor growth during the treatment period (in words)” value in assay [4] (FIG. 2, MLN4924 SC 30 mg/kg BID, gemcitabine 10 mg/kg IP q3dx4, single agents or their combination) is “inhibited tumor growth compared to the control vehicle group”. Moreover, in assay [5] (PHTX249Pa xenograft, 20 mg/kg gemcitabine BIW IV), the “average tumor volume day 18” value worked out at 585.1 mm^3. Also, in assay [5] (PHTX249 Pa xenograft, gemcitabine 20 mg/kg IV BIW, MLN4924 90 mg/kg SC BID BIW, single agents or their combination), the “tumor growth compared to the control vehicle group (in words)” value is “inhibited tumor growth compared to the control vehicle group”.
